PubChem BioAssay (NCI)
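Test compounds were applied to cells in 96-well plates for 48 hours at 5 doses. At the GI50, growth is halved. At the TGI there is no net growth.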

Tests used:
Test in all cases: NCI anticancer screen, dose series, 48 h
DLD-1 colon = system: DLD-1 colon
DMS 114 small cell lung = system: DMS 114 small cell lung
HOP-18 NSCLC = system: HOP-18 NSCLC
KM20L2 colon = system: KM20L2 colon
LXFL 529 NSCLC = system: LXFL 529 NSCLC
RXF-631 renal = system: RXF-631 renal
XF 498 CNS = system: XF 498 CNS
MDA-N = system: MDA-N
T-47D breast = system: T-47D breast

Compound	TGI (DLD-1 colon) [µM]	TGI (DMS 114 small cell lung) [µM]	TGI (HOP-18 NSCLC) [µM]	TGI (KM20L2 colon) [µM]	TGI (LXFL 529 NSCLC) [µM]	TGI (RXF-631 renal) [µM]	TGI (XF 498 CNS) [µM]	GI50 (HOP-18 NSCLC) [µM]	GI50 (KM20L2 colon) [µM]	GI50 (LXFL 529 NSCLC) [µM]	TGI (MDA-N) [µM]	TGI (T-47D breast) [µM]	GI50 (DLD-1 colon) [µM]	GI50 (RXF-631 renal) [µM]	GI50 (XF 498 CNS) [µM]
O=C1N[C@@H](O)[C@@H]2ON=C(c3ccccc3)[C@H]12	> 100	> 100	> 100	> 100	> 100	> 100	> 100	–	–	–	–	–	–	–	–
COc1cc(/C=C/C(=N\NC(=O)c2ccccc2)c2sc(Nc3ccc(Cl)c(Cl)c3)nc2C)ccc1O	> 100	71.5	79.3	> 100	> 100	72.5	91.3	–	–	–	–	–	–	–	–
COc1ccc(C2C(N)=NCC2c2ccccn2)cc1 (stereo not given)	> 100	> 100	97.9	> 100	> 100	> 100	> 100	–	–	–	–	–	–	–	–
COc1ccc(/C=C/C(=O)c2sc(-n3nc(-c4ccccc4)cc3-c3ccccc3)nc2C)cc1OC	> 100	> 100	> 100	63.7	> 100	> 100	> 100	–	–	–	–	–	–	–	–
NC1=NC(=O)C(CC(=O)Nc2ccc([N+](=O)[O-])cc2[N+](=O)[O-])S1 (stereo not given)	> 100	> 100	> 100	> 100	> 100	> 100	> 100	–	–	–	–	–	–	–	–
CN1CCN(C)C1c1cccc(C2N(C)CCN2C)c1	> 100	> 100	–	> 100	> 100	> 100	–	–	–	–	–	–	–	–	–
CC1(C)CCc2cc3c(cc2O1)OCCC3=O	> 100	> 100	> 100	> 100	> 100	> 100	> 100	–	–	–	–	–	–	–	–
O=C1c2ccccc2-c2cccc3ccc(Cc4ccccc4)c1c23	> 100	> 100	–	> 100	> 100	> 100	> 100	–	–	–	–	–	–	–	–
CC(=O)OCCOCBr	> 100	> 100	> 100	> 100	> 100	> 100	> 100	–	–	–	–	–	–	–	–
CC1=Nc2c(ccc3c2C(=O)c2ccccc2C3=O)NC(c2ccncc2)C1 (stereo not given)	> 100	> 100	> 100	> 100	> 100	> 100	> 100	> 100	> 100	> 100	–	–	–	–	–
O=c1c2ccccc2c2c3c1cccc3c1cccc3c(=O)c4ccccc4c2c31	> 100	> 100	> 100	> 100	> 100	> 100	–	–	–	–	–	–	–	–	–
COc1ccc2c(-c3cc4ccccc4o3)cc(=O)oc2c1	> 100	–	> 100	> 100	> 100	> 100	45	–	–	–	> 100	> 100	–	–	–
CC(C)(C)C1(O)Cc2ccccc2C(=O)O1 (stereo not given)	> 100	> 100	> 100	> 100	> 100	> 100	–	–	–	–	–	–	–	–	–
N#Cc1c(N)c(C(=O)O)nn(-c2cccc(C(F)(F)F)c2)c1=O	> 100	–	> 100	> 100	> 100	> 100	> 100	–	–	–	–	–	–	–	–
CCOc1cccc2nc3cccc(C(=O)NCCN(C)C)c3nc12	7.66	3.7	> 38.4	5.48	> 21.9	10.5	3.52	–	–	–	–	–	–	–	–
CN(C)C(=S)/N=c1\ss/c(=N\S(=O)(=O)c2ccccc2)n1-c1ccccc1	> 100	50.3	> 100	–	–	> 100	79.4	–	–	–	–	–	–	–	–
c1cc[c]([Sn]([S]c2cccc3cccnc23)([c]2ccccc2)[c]2ccccc2)cc1	0.101	–	0.214	0.109	0.0548	0.0804	0.0524	0.0784	0.0338	0.0209	–	–	0.0321	0.0256	0.0241
